Laboratory results: patent US20240174690A1, “ANNULATED 2-AMINO-3-CYANO THIOPHENES AND DERIVATIVES FOR THE TREATMENT OF CANCER” (BOEHRINGER INGELHEIM INTERNATIONAL GMBH, priority 2021, published 2024)
In brackets after ≈: the same amount, converted by molar mass. Read-outs that look alike come from different tables or passages of the source.

Key:
[1] = Solubility measurement (DMSO solution method), McIlvaine buffer pH 4.5 or 6.8; assay type: physicochemical; details: aqueous buffer, kinetic from dmso stock, DMSO stock diluted to 250 μM, 24 h shaking at ambient temperature
Experimental: The DMSO solution is diluted with an aqueous medium (Mcllvaine buffer with pH=4.5 or 6.8) to a final concentration of 250 μM. After 24 h of shaking at ambient temperature a potentially formed precipitate is removed by filtration. The concentration of the test compound in the filtrate is determined by LC-UV methods by calibrating the signal to the signal of a reference solution with complete dissolution of the test compound in acetonitrile/water (1:1) with known concentration.

SK-CO-1 cells = experiment: SK-CO-1 CTG proliferation assay (120 h) (CRC, G12V); assay type: cell-based; details: Homo sapiens; SK-CO-1 cells (CRC, G12V), CTG 120 h
Experimental: SK-CO-1 CTG Proliferation Assay (120 h) (CRC, G12V)
SK-CO-1 cells (ATCC HTB-39) are dispensed into 384-well plates, flat and clear bottom (Greiner, PNr. 781091) at a density of 500 cells per well in 60 μL EMEM (Sigma M5650)+10% Fetal Calf Serum (HyClone, PNr.: SH30084.03) and incubated at 37° C. in a CO2 incubator overnight. The next day, compounds (10 mM stock in DMSO) are added with the ECHO acoustic liquid handler system (Beckman Coulter), including DMSO controls. Plates are incubated for 120 h, and cell viability is measured using CellTiter-Glo luminescent cell viability reagent (Promega product code G7570). Viability (stated as percent of control) is defined as relative luminescence units RLU of each well divided by the RLU of cells in DMSO controls. IC50 values are determined from viability measurements by non-linear regression using a four-parameter model.

NCI-H358 cells = experiment: NCI-H358 CTG proliferation assay (120 h) (NSCLC, G12C); assay type: cell-based, human; details: Homo sapiens
Experimental: NCI-H358 CTG Proliferation Assay (120 h) (NSCLC, G12C)
NCI-H358 cells (ATCC No. CRL-5807) are dispensed into white bottom opaque 96 well plates (Perkin Elmer cat no. 5680) at a density of 2000 cells per well in 100 μL RPMI-1640 ATCC-Formulation (Gibco #A10491)+10% FCS (fetal calf serum) (assay 1) or into black 384-well plates, flat and clear bottom (Greiner, PNr. 781091) at a density of 200 cells per well in 60 μl RPMI-1640 ATCC-Formulation (Gibco #A10491)+10% FCS (fetal calf serum) (assay 2). […] Compounds (10 mM stock in DMSO) are added at logarithmic dose series using the HP Digital Dispenser D300 (Tecan) (assay 1) or the ECHO acoustic liquid handler system (Beckman Coulter) (assay 2), normalizing for added DMSO and including DMSO controls. For the TO time point measurement, untreated cells are analyzed at the time of compound addition. Plates are incubated for 120 h, and cell viability is measured using CellTiter-Glo luminescent cell viability reagent (Promega product code G7570). Viability (stated as percent of control) is defined as relative luminescence units RLU of each well divided by the RLU of cells in DMSO controls. IC50 values are determined from viability measurements by non-linear regression using a four parameter model.

CYP3A4 = CYP3A4 (Homo sapiens (Human), UniProt P08684); experiment: Mechanism based inhibition of CYP3A4 assay (MBI 3A4); assay type: in vitro ADME; details: hydroxy-midazolam formation after 30 min vs 0 min preincubation, 25 uM, human liver microsomes
CYP3A4, sequence (P08684 whole entry): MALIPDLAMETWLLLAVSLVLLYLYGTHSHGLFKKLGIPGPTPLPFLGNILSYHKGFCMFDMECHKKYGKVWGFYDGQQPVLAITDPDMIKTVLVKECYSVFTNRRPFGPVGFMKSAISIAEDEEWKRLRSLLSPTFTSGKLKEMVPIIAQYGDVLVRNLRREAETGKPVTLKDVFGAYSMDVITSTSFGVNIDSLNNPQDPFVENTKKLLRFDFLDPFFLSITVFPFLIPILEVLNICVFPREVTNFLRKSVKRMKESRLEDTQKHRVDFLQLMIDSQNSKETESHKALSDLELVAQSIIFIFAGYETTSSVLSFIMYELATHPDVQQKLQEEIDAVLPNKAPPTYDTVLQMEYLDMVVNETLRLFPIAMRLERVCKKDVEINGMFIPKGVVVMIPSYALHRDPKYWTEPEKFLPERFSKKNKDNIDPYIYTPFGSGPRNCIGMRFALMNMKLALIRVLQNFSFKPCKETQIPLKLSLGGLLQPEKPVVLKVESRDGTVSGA
Experimental: After preincubation, the incubate is diluted 1:10 and the substrate midazolam is added for the main incubation (15 min). The main incubation is quenched with acetonitrile and the formation of hydroxy-midazolam is quantified via LC/MS-MS. The formation of hydroxy-midazolam from the 30 min preincubation relative to the formation from the 0 min preincubation is used as a readout. Values of less than 100% mean that the substrate midazolam is metabolized to a lower extent upon 30 min preincubation compared to 0 min preincubation. In general low effects upon 30 min preincubation are desired (corresponding to values close to 100%/not different to the values determined with water control).

[2] = McIlvaine buffer pH 4.5, read-out: solubility pH 4.5
[3] = McIlvaine buffer pH 6.8, read-out: solubility pH 6.8
[4] = assay 1, CTG, read-out: H358 (assay 1) IC50
[5] = assay 2, CTG, read-out: H358 (assay 2) IC50

SMILES	solubility at 24 h [1, 2] [µg/mL]	solubility at 24 h [1, 3] [µg/mL]	IC50 (SK-CO-1 cells) [µM]	IC50 (NCI-H358 cells; [4]) [µM]	MBI 3A4 (CYP3A4) [%]	IC50 (NCI-H358 cells; [5]) [µM]
C[C@H](Oc1cc(N2CCNC2=O)nc(-c2noc3c2CCC[C@@]32CCCc3sc(N)c(C#N)c32)n1)[C@@H]1CCCN1C [II-64]	40 (≈ 69.6 µM)	8 (≈ 13.9 µM)	0.024	0.036		
C[C@H](Oc1cc(-n2ccc(C#N)n2)nc(-c2noc3c2CCC[C@@]32CCCc3sc(N)c(C#N)c32)n1)[C@@H]1CCCN1C [II-102]	24 (≈ 41.3 µM)	< 1	0.037			
C[C@H](Oc1cc(N2CCNC3(CC3)C2)nc(-c2onc3c2CCC[C@@]32CCCc3sc(N)c(C#N)c32)n1)[C@@H]1CCCN1C [I-5]	> 138	> 123	0.987	0.813	34	0.852
C[C@H](Oc1cc(-n2ccnc2Cl)nc(-c2noc3c2CCC[C@@]32CCCc3sc(N)c(C#N)c32)n1)[C@@H]1CCCN1C [II-93]	97 (≈ 164 µM)	20 (≈ 33.8 µM)	0.14			0.872
C[C@H](Oc1cc(-n2cnc3cccnc32)nc(-c2noc3c2CCC[C@@]32CCCc3sc(N)c(C#N)c32)n1)[C@@H]1CCCN1C [II-65]	7 (≈ 11.5 µM)	< 1	0.36			3.23
C[C@H](Oc1cc(-c2ccn3ncnc3c2)nc(-c2noc3c2CCC[C@@]32CCCc3sc(N)c(C#N)c32)n1)[C@@H]1CCCN1C [II-104]	3 (≈ 4.94 µM)	< 1			78	0.391
C[C@H](Oc1cc(N2CCc3cccnc32)nc(-c2noc3c2CCC[C@@]32CCCc3sc(N)c(C#N)c32)n1)[C@@H]1CCCN1C [II-90]			0.451			3.25
C[C@H](Oc1cc(N2CCCC3(COC3)C2)nc(-c2noc3c2CCC[C@@]32CCCc3sc(N)c(C#N)c32)n1)[C@@H]1CCCN1C [II-72]	> 146	89 (≈ 145 µM)	0.071			0.009
C[C@H](Oc1cc(-n2ccncc2=O)nc(-c2noc3c2CCC[C@@]32CCCc3sc(N)c(C#N)c32)n1)[C@@H]1CCCN1C [II-116]			0.064			
C[C@H](Oc1cc(N2CCNC[C@@]23CCOC3)nc(-c2noc3c2CCC[C@@]32CCCc3sc(N)c(C#N)c32)n1)[C@@H]1CCCN1C [II-51]	> 138	> 133	0.772			3.36
C[C@H](Oc1cc(-c2ccn(-c3ccsc3)n2)nc(-c2noc3c2CCC[C@@]32CCCc3sc(N)c(C#N)c32)n1)[C@@H]1CCCN1C [II-84]	< 1	< 1	0.116			> 25
C[C@H](Oc1cc(N2CCOC3(CC3)C2)nc(-c2noc3c2CCC[C@@]32CCCc3sc(N)c(C#N)c32)n1)[C@@H]1CCCN1C [II-61]	111 (≈ 184 µM)	41 (≈ 68.1 µM)	0.192			1.42
C[C@H]1CN(C)CCCN1c1cc(N2CCN(C)CC2)nc(-c2onc3c2CCC[C@@]32CCCc3sc(N)c(C#N)c32)n1 [I-7]	> 139	> 133	1.49			
C[C@H](Oc1cc(-c2cncs2)nc(-c2noc3c2CCC[C@@]32CCCc3sc(N)c(C#N)c32)n1)[C@@H]1CCCN1C [II-80]			0.148			
C[C@H](Oc1cc(N2CCCC2=O)nc(-c2noc3c2CCC[C@@]32CCCc3sc(N)c(C#N)c32)n1)[C@@H]1CCCN1C [II-73]	> 124	88 (≈ 153 µM)	0.043		52	
C[C@H](Oc1cc(-c2ccn(C3COC3)n2)nc(-c2noc3c2CCC[C@@]32CCCc3sc(N)c(C#N)c32)n1)[C@@H]1C[C@H](F)CN1C [II-83]	< 1	< 1	0.447			

SMILES	solubility at 24 h [1, 2] [µg/mL]	solubility at 24 h [1, 3] [µg/mL]	IC50 (SK-CO-1 cells) [µM]	IC50 (NCI-H358 cells; [4]) [µM]	MBI 3A4 (CYP3A4) [%]	IC50 (NCI-H358 cells; [5]) [µM]
C[C@H](Oc1cc(N2CCNCC23CCOC3)nc(-c2onc3c2CCC[C@@]32CCCc3sc(N)c(C#N)c32)n1)[C@@H]1CCCN1C (stereo partly drawn) [I-10]	> 141	> 136			72	0.2
C[C@H](Oc1cc(-n2cc(Cn3cncn3)nn2)nc(-c2noc3c2CCC[C@@]32CCCc3sc(N)c(C#N)c32)n1)[C@@H]1CCCN1C [II-124]	> 148	108 (≈ 169 µM)	0.038			0.114
C[C@H](Oc1cc(-n2cc(Cn3ccnc3)nn2)nc(-c2noc3c2CCC[C@@]32CCCc3sc(N)c(C#N)c32)n1)[C@@H]1CCCN1C [II-113]	> 173	107 (≈ 168 µM)	0.064			0.128
CO[C@@H]1C[C@@H]([C@H](C)Oc2cc(-c3cnn(C)n3)nc(-c3noc4c3CCC[C@@]43CCCc4sc(N)c(C#N)c43)n2)N(C)C1 [II-62]	> 129	< 1	0.28		53	
C[C@H](Oc1cc(N2CCN3CCC3C2)nc(-c2onc3c2CCC[C@@]32CCCc3sc(N)c(C#N)c32)n1)[C@@H]1CCCN1C (stereo partly drawn) [I-9]	> 149	> 147	10.8			1.31
C[C@H](Oc1cc([C@H]2CCOC2)nc(-c2noc3c2CCC[C@@]32CCCc3sc(N)c(C#N)c32)n1)[C@@H]1CCCN1C [II-88]			0.047		77	0.126
C[C@H](Oc1cc(-n2cccc3cnnc2-3)nc(-c2noc3c2CCC[C@@]32CCCc3sc(N)c(C#N)c32)n1)[C@@H]1CCCN1C [II-92]			0.279			3.4
C[C@H](Oc1cc(-c2cn(C3COC3)nn2)nc(-c2noc3c2CCC[C@@]32CCCc3sc(N)c(C#N)c32)n1)[C@@H]1CCCN1C [II-100]	120 (≈ 196 µM)	57 (≈ 92.9 µM)	0.257			
Cc1nc(-c2cc(O[C@@H](C)[C@@H]3CCCN3C)nc(-c3noc4c3CCC[C@@]43CCCc4sc(N)c(C#N)c43)n2)cs1 [II-103]	53 (≈ 90.2 µM)	< 1			53	
CO[C@@H]1C[C@@H]([C@H](C)Oc2cc(-c3ccn(C4COC4)n3)nc(-c3noc4c3CCC[C@@]43CCCc4sc(N)c(C#N)c43)n2)N(C)C1 [II-107]	> 162	< 1	0.181		58	
C[C@H](Oc1cc(-c2ccc(N)nc2)nc(-c2noc3c2CCC[C@@]32CCCc3sc(N)c(C#N)c32)n1)[C@@H]1CCCN1C [II-101]	88 (≈ 151 µM)	2 (≈ 3.43 µM)	0.257			0.195
C[C@H](Oc1cc(-c2cn[nH]c2)nc(-c2noc3c2CCC[C@@]32CCCc3sc(N)c(C#N)c32)n1)[C@@H]1CCCN1C [II-87]			0.071		64	0.106
C[C@H](Oc1cc(-n2cc3c(n2)CCNC3)nc(-c2noc3c2CCC[C@@]32CCCc3sc(N)c(C#N)c32)n1)[C@@H]1CCCN1C [II-53]			0.566		80	0.23
Cc1nccn1-c1cc(O[C@@H](C)[C@@H]2CCCN2C)nc(-c2noc3c2CCC[C@@]32CCCc3sc(N)c(C#N)c32)n1 [II-79]	> 154	102 (≈ 179 µM)	0.188			
C[C@H](Oc1cc(N2CCOC3(COC3)C2)nc(-c2noc3c2CCC[C@@]32CCCc3sc(N)c(C#N)c32)n1)[C@@H]1CCCN1C [II-77]	> 143	> 134	0.04	0.051		0.009
